Measurements from patent publication EP0929544B1, “TRICYCLIC ANTITUMOR COMPOUNDS BEING FARNESYL PROTEIN TRANSFERASE INHIBITORS” (SCHERING CORPORATION, priority 1996, dated 1998).
pIC50: −log10 of the molar value.

target: T1, Farnesyl protein transferase (FPT) (Rattus norvegicus, UniProt Q02293+Q04631); experiment: In vitro enzyme assay: inhibition of farnesyl protein transferase (transfer of [3H]farnesyl from [3H]farnesyl pyrophosphate to Ras-CVLS); type: biochemical; conditions: not given
T1 construct: Farnesyl protein transferase (FPT) was partially purified from rat brain; from tissue; host or cells: rat brain
T1 sequence (Q02293 whole entry, one chain of several): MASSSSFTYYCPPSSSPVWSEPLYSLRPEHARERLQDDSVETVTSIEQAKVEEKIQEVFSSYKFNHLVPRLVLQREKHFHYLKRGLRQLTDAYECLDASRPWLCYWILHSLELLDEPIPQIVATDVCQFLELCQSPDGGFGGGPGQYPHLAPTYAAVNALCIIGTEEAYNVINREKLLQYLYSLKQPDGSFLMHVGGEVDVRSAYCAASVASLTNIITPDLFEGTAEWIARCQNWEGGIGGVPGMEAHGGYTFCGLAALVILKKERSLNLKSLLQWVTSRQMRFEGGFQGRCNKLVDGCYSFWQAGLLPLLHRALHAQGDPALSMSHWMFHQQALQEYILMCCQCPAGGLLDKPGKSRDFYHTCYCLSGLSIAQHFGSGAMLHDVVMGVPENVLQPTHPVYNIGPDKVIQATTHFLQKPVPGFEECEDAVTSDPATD
Excerpt: 1. In vitro enzyme assays: Inhibition of farnesyl protein transferase and geranylgeranyl protein transferase.
Farnesyl protein transferase (FPT) was partially purified from rat brain by ammonium sulfate fractionation followed by Q-Sepharose (Pharmacia, Inc.) anion exchange chromatography essentially as described by Yokoyama et al (Yokoyama, K., et al., (1991), A protein geranylgeranyltransferase from bovine brain: Implications for protein prenylation specificity, Proc. Natl. Acad. Sci USA 88: 5302-5306, the disclosure of which is incorporated herein by reference thereto). Human famesyl protein transferase was also expressed in E. coli, using cDNA clones encoding both the a and b subunits. The methods used were similar to those published (Omer, C. et al., (1993), Characterization of recombinant human farnesyl protein transferase: Cloning, expression, famesyl diphosphate binding, and functional homology with yeast prenyl-protein transferases, Biochemistry 32:5167-5176). Human famesyl protein transferase was partially-purified from the soluble protein fraction of E. coli as described above. […] Two forms of val^12-Ha-Ras protein were prepared as substrates for these enzymes, differing in their carboxy terminal sequence. One form terminated in cysteine-valine-leucine-serine (Ras-CVLS) the other in cystein-valine-leucine-leucine (Ras-CVLL). Ras-CVLS is a substrate for the famesyl protein transferase while Ras-CVLL is a substrate for geranylgeranyl protein transferase I. The cDNAs encoding these proteins were constructed so that the proteins contain an amino-terminal extension of 6 histidine residues. Both proteins were expressed in Escherichia coli and purified using metal chelate affinity chromatography. The radiolabelled isoprenyl pyrophosphate substrates, [^3H]farnesyl pyrophosphate and [^3H]geranylgeranyl pyrophosphate, were purchased from DuPont/New England Nuclear.
Several methods for measuring famesyl protein transferase activity have been described (Reiss et al 1990, Cell 62: 81; Schaber et al 1990, J. Biol. Chem. 265: 14701; Manne et al 1990, PNAS 87: 7541; and Barbacid & Manne 1993, U.S. Patent No. 5,185,248). […] The reaction was allowed to proceed for 30 minutes at room temperature and then stopped with 0.5 ml of 4% sodium dodecyl sulfate (SDS) followed by 0.5 ml of cold 30% TCA. Samples were allowed to sit on ice for 45 minutes and precipitated Ras protein was then collected on GF/C filter paper mats using a Brandel cell harvester. Filter mats were washed once with 6% TCA, 2% SDS and radioactivity was measured in a Wallac 1204 Betaplate BS liquid scintillation counter. Percent inhibition was calculated relative to the DMSO vehicle control.

Row | SMILES | pIC50
1 | CN(C)CCCC(=O)N1CCC(C2c3ncc(Br)cc3CCc3cc(Cl)cc(Cl)c32)CC1 (single isomer, unassigned) [Example 6] | 8.19

same assay, conditions: @ 0.06 µg/µL

Row | FPT inhibition (percent inhibition) | SMILES
2 | 21%@ 0.06 µg/µL | O=C(CCCC(=O)N1CCC(C2c3ncc(Br)cc3CCc3cc(Cl)cc(Cl)c32)CC1)Nc1ccccc1 (single isomer, unassigned) [Example 19]
3 | 35%@ 0.06 µg/µL | O=C(CCCC(=O)N1CCC(C2c3ncc(Br)cc3CCc3cc(Cl)cc(Cl)c32)CC1)NCc1ccccc1 (single isomer, unassigned) [Example 21]
4 | 41%@ 0.06 µg/µL | O=C(NCCCCC(=O)N1CCC(C2c3ncc(Br)cc3CCc3cc(Cl)cc(Cl)c32)CC1)c1ccccc1 (single isomer, unassigned) [Example 22]
5 | 20 %@ 0.06 µg/µL | O=C(NCCCC(=O)N1CCC(C2c3ncc(Br)cc3CCc3cc(Cl)cc(Cl)c32)CC1)c1ccncc1 (single isomer, unassigned) [Example 24]

same assay, conditions: @ 88 nM; read-out: FPT inhibition (percent inhibition)

Row | inhibition at 0.088 µM | SMILES
6 | 12% | O=C(CCCN1C(=O)c2ccccc2C1=O)N1CCC(C2c3ncc(Br)cc3CCc3cc(Cl)cc(Br)c32)CC1 (single isomer, unassigned; (+)) [Example 32, (+)-4-(3,10-DIBROMO-8-CHLORO-6,11-DIHYDRO-5H-BENZO[5,6]CYCLO-HEPTA[1,2-b]PYRIDIN-11-YL)-1-[4-(1,3-DIHYDRO-1,3-DIOXO-2H-ISOINDOL-2-YL)-1-OXOBUTYL)PIPERIDINE]

same assay, conditions: @ 92 nM; read-out: FPT inhibition (percent inhibition)

Row | inhibition at 0.092 µM | SMILES
7 | 0% | O=C(CCCC(=O)N1CCC(C2c3ncc(Br)cc3CCc3cc(Cl)cc(Cl)c32)CC1)Nc1ccc(Cl)cc1 (single isomer, unassigned) [Example 20]

same assay, conditions: @ 110 nM; read-out: FPT inhibition (percent inhibition)

Row | inhibition at 0.11 µM | SMILES
8 | 43% | CS(=O)(=O)NCC(=O)N1CCC(C2c3ncc(Br)cc3CCc3cc(Cl)cc(Cl)c32)CC1 (single isomer, unassigned; (+)) [Example 28]
9 | 36% | NC(=O)NCC(=O)N1CCC(C2c3ncc(Br)cc3CCc3cc(Cl)cc(Cl)c32)CC1 (single isomer, unassigned; (+)) [Example 30]

same assay, conditions: @ 330nM; read-out: FPT inhibition (percent inhibition)

Row | inhibition at 0.33 µM | SMILES
10 | 47% | CC(C)(C)OC(=O)NCCCC(=O)N1CCC(C2c3ncc(Br)cc3CCc3cc(Cl)cc(Cl)c32)CC1 (single isomer, unassigned) [Example 25]

same assay, conditions: FPT INHIBITION; read-out: FPT IC50

Row | SMILES | pIC50
11 | O=C(NCCCC(=O)N1CCC(C2c3ncc(Br)cc3CCc3cc(Cl)cc(Cl)c32)CC1)Nc1ccccc1 (single isomer, unassigned) [Example 16] | < 7.00
12 | O=C(CCCC(=O)N1CCC(C2c3ncc(Br)cc3CCc3cc(Cl)cc(Cl)c32)CC1)Nc1cccnc1 (single isomer, unassigned) [Example 17] | ~7.00
13 | CC(C)(C)OC(=O)NCC(=O)N1CCC(C2c3ncc(Br)cc3CCc3cc(Cl)cc(Cl)c32)CC1 (single isomer, unassigned) [Example 26] | 6.27
14 | CCOC(=O)CC(=O)N1CCC([C@H]2c3ncc(Br)cc3CCc3cc(Cl)cc(Br)c32)CC1 [Example 45, (+)-ETHYL 4-(3,10-DIBROMO-8-CHLORO-6,11-DIHYDRO-5H-BENZO[5,6]CYCLO-HEPTA[1,2-b]PYRIDIN-11(R)-YL)-BETA-OXO-1-PIPERIDININE PROPANOATE] | 7.55
15 | NC(=O)CC(=O)N1CCC([C@H]2c3ncc(Br)cc3CCc3cc(Cl)cc(Br)c32)CC1 [Example 47, 4-(3,10-DIBROMO-8-CHLORO-6,11-DIHYDRO-5H-BENZO[5,6]CYCLO-HEPTA[1,2-b]PYRIDIN-1(R)-YL)-BETA-OXO-1-PIPERIDININE PROPANAMIDE] | 7.17

Further lines, results first:

Row | pIC50 | SMILES
16 | 6.42 | CN(C)CC(=O)N1CCC(C2c3ncc(Br)cc3CCc3cc(Cl)cc(Cl)c32)CC1 (single isomer, unassigned) [Example 4]
17 | 7.25 | CN(C)CCC(=O)N1CCC(C2c3ncc(Br)cc3CCc3cc(Cl)cc(Cl)c32)CC1 (single isomer, unassigned) [Example 5]
18 | 7.66 | CN(C)CCCCC(=O)N1CCC(C2c3ncc(Br)cc3CCc3cc(Cl)cc(Cl)c32)CC1 (single isomer, unassigned) [Example 7]
19 | 7.85 | CCN(CC)CCC(=O)N1CCC(C2c3ncc(Br)cc3CCc3cc(Cl)cc(Cl)c32)CC1 (single isomer, unassigned) [Example 8]
20 | 8.22 | O=C(CCN1CCCCC1)N1CCC(C2c3ncc(Br)cc3CCc3cc(Cl)cc(Cl)c32)CC1 (single isomer, unassigned) [Example 9]
21 | 7.12 | O=C(CCN1C(=O)CCC1=O)N1CCC(C2c3ncc(Br)cc3CCc3cc(Cl)cc(Cl)c32)CC1 (single isomer, unassigned) [Example 11]
22 | 7.21 | NC(=O)CCC(=O)N1CCC(C2c3ncc(Br)cc3CCc3cc(Cl)cc(Cl)c32)CC1 (single isomer, unassigned) [Example 12]
23 | 7.20 | CC(=O)NCCCC(=O)N1CCC(C2c3ncc(Br)cc3CCc3cc(Cl)cc(Cl)c32)CC1 (single isomer, unassigned) [Example 15]
24 | 6.21 | O=C(CCCCCN1C(=O)C=CC1=O)N1CCC(C2c3ncc(Br)cc3CCc3cc(Cl)cc(Cl)c32)CC1 (single isomer, unassigned) [Example 23]
25 | 6.41 | NC(=O)N1CCC(C2c3ncc(Br)cc3CCc3cc(Cl)cc(Cl)c32)CC1 (single isomer, unassigned; (+)) [Example 1, (+)-4-(3-BROMO-8,10-DICHLORO-6,11-DIHYDRO-5H-BENZO[5,6]CYCLOHEPTA[1,2-b]PYRIDIN-11-YL)-1-PIPERIDINE CARBOXAMIDE, reference compound]
26 | 5.96 | NCC(=O)N1CCC(C2c3ncc(Br)cc3CCc3cc(Cl)cc(Cl)c32)CC1 (single isomer, unassigned; (+)) [Example 3, (+)-1-(AMINOACETYL)-4-(3-BROMO-8,10-DICHLORO-6,11-DIHYDRO-5H-BENZO[5,6]CYCLO-HEPTA[1,2-b]PYRIDIN-11-YL) PIPERIDINE]
27 | 6.89 | NCCCC(=O)N1CCC(C2c3ncc(Br)cc3CCc3cc(Cl)cc(Cl)c32)CC1 (single isomer, unassigned; (+)) [Example 27, (+)-1-(4-AMINO-1-OXOBUTYL)-4-(3-BROMO-8,10-DICHLORO-6,11-DIHYDRO-5H-BENZO[5,6]CYCLO-HEPTA[1,2-b]PYRIDIN-11-YL) PIPERIDINE]
28 | 7.24 | NC(=O)NCCCC(=O)N1CCC(C2c3ncc(Br)cc3CCc3cc(Cl)cc(Cl)c32)CC1 (single isomer, unassigned; (+)) [Example 31]
29 | 7.85 | NC(=O)CCC(=O)N1CCC([C@H]2c3ncc(Br)cc3CCc3cc(Cl)cc(Br)c32)CC1 [Example 50, (+)-4-(3,10-DIBROMO-8-CHLORO-6,11-DIHYDRO-5H-BENZO[5,6]CYCLO-HEPTA[1,2-b]PYRIDIN-11(R)-YL)-GAMMA-OXO-1-PIPERIDININE BUTANAMIDE]

same assay, conditions: read-out: FPT IC50; FPT INHIBITION

Row | SMILES | pIC50
30 | O=C(O)CC(=O)N1CCC([C@H]2c3ncc(Br)cc3CCc3cc(Cl)cc(Br)c32)CC1 [Example 46, (+)-SODIUM 4-(3,10-DIBROMO-8-CHLORO-6,11-DIHYDRO-5H-BENZO[5,6]CYCLO-HEPTA[1,2-b]PYRIDIN-11(R)-YL)-BETA-OXO-1-PI[…]] | 7.11
31 | COC(=O)CCC(=O)N1CCC([C@H]2c3ncc(Br)cc3CCc3cc(Cl)cc(Br)c32)CC1 [Example 48, (+)-METHYL 4-(3,10-DIBROMO-8-CHLORO-6,11-DIHYDRO-5H-BENZO[5,6]CYCLO-HEPTA[1,2-b]PYRIDIN-11(R)-YL)-GAMMA-OXO-1-PI[…]] | 8.05
32 | O=C(O)CCC(=O)N1CCC([C@H]2c3ncc(Br)cc3CCc3cc(Cl)cc(Br)c32)CC1 [Example 49, (+)-SODIUM 4-(3,10-DIBROMO-8-CHLORO-6,11-DIHYDRO-5H-BENZO[5,6]CYCLO-HEPTA[1,2-b]PYRIDIN-11(R)-YL)-GAMMA-OXO-1-PI[…]] | 6.57

same assay, conditions: read-out: FPT inhibition (percent inhibition)

Row | SMILES | inhibition at 0.0934 µM
33 | O=C(CCCN1C(=O)c2ccncc2C1=O)N1CCC(C2c3ncc(Br)cc3CCc3cc(Cl)cc(Cl)c32)CC1 (single isomer, unassigned) [Example 33, 4-(8,10-DICHLORO-3-BROMO-6,11-DIHYDRO-5H-BENZO[5,6]CYCLO-HEPTA[1,2-b]PYRIDIN-11-YL)-1-[4-(1,3-DIHYDRO-1,3-DIOXO-2H-PYRROLO-[3,4c]-PYRIDINE-2-YL)-1-OXOBUTYL]PIPERIDINE] | 38.7%
